Read-outs that look alike come from different tables or passages of the source.
Columns and labels:
Collagenase = assay: Inhibition of collagenase (acetylated 14C collagen hydrolysis; Cawston and Barrett); assay type: biochemical; settings: 37°, 16 hours, pH 7.5, read-out: In vitro inhibitory activity IC50, Collagenase
Description: The samples were centrifuged to sediment undigested collagen, and an aliquot of the radioactive supernatant removed for assay on a scintillation counter as a measure of hydrolysis.

stromelysin [1] = target: T1, stromelysin (Homo sapiens, UniProt P08254); assay: biochemical
Description: (§1) The casein was acetylated ^14 C casein prepared by the method of Cawston et al (ibid).

72 kDa Gelatinase = target: T2, 72 kDa Gelatinase (Homo sapiens, UniProt P08253); assay: Inhibition of 72 kDa gelatinase (14C-radiolabelled gelatin; Sellers et al); assay type: biochemical
T2 construct: endogenous in cells; host or cells: RPMI-7951 cells
T2 sequence (P08253 110-660): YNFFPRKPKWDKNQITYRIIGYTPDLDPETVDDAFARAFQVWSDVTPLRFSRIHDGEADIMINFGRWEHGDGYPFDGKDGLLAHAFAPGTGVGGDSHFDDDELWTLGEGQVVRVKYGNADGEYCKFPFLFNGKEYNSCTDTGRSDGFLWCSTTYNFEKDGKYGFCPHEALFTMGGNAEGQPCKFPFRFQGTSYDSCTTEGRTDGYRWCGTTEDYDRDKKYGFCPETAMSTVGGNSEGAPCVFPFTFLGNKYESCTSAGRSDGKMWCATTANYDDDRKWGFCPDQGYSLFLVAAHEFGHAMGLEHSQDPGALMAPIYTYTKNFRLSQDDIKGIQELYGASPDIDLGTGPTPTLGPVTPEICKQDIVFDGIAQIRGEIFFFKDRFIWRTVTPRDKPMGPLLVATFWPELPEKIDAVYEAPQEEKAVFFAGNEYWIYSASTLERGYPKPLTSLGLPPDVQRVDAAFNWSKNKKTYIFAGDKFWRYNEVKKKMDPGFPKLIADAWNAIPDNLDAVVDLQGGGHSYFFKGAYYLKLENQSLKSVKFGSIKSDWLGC

stromelysin [2] = target: T1, stromelysin; settings: read-out: In vitro inhibitory activity IC50, Stromelsin; 14C acetylated casein, 37°, 16 hours, pH 7.5
Description: as §1

[3] = enzyme from RPMI-7951 cells, 14C gelatin, 37° C., 16 hours, read-out: In vitro inhibitory activity IC50, 72 kDa Gelatinase

T1 sequence (P08254 100-477): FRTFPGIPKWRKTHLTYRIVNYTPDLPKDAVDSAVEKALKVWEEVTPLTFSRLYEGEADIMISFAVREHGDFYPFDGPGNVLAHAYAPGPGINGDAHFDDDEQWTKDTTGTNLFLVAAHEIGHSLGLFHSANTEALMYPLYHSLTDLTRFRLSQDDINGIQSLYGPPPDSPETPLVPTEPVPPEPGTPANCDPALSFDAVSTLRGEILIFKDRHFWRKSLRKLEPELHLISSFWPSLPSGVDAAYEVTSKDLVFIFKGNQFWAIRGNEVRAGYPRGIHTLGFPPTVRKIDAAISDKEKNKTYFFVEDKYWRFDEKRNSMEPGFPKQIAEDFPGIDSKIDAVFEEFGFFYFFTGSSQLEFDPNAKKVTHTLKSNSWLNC

Structure (SMILES) | IC50 (Collagenase) | IC50 (stromelysin [1]) | IC50 (72 kDa Gelatinase; [3]) | IC50 (stromelysin [2]) | IC50 (72 kDa Gelatinase)
CC(C)C[C@@H](C(=O)N[C@H](C(=O)Nc1ccccn1)C(C)(C)C)[C@H](O)C(=O)NO [Example 8, 3R-(2,2-Dimethyl-1S-pyridin-2-ylcarbamoyl-propylcarbamoyl)-2S-hydroxy-5-methylhexanohydroxamic acid] | 0.006 µM | 0.03 µM | 0.015 µM |  | 
COc1ccc(NC(=O)[C@H](Cc2ccccc2)NC(=O)[C@H](CC(C)C)[C@H](O)C(=O)NO)cc1 [Example 6] | 0.03 µM | 0.003 µM | 0.008 µM |  | 
CC(C)C[C@H](CC(=O)NO)C(=O)N[C@H](C(=O)Nc1ccccn1)C(C)(C)C [Example 3, 3R-(2,2-Dimethyl-1S-pyridin-2-ylcarbamoyl-propylcarbamoyl)-5-methyl-hexanohydroxamic acid] | 0.04 µM | 0.15 µM | 0.03 µM |  | 
CC(C)C[C@@H](C(=O)N[C@H](C(=O)Nc1ccccc1)C(C)(C)C)[C@H](O)C(=O)NO [Example 4, 3R-(2,2-Dimethyl-1S-phenylcarbamoyl-propylcarbamoyl)-2S-hydroxy-5-methylhexanohydroxamic acid] | 0.002 µM | 0.009 µM | 0.005 µM |  | 
CC(C)C[C@H](CC(=O)NO)C(=O)N[C@H](C(=O)Nc1ccccc1)C(C)(C)C [Example 2, 3R-(2,2-Dimethyl-1S-phenylcarbamoyl-propylcarbamoyl)-5-methyl-hexanohydroxamic acid] | 0.03 µM | 0.015 µM | 0.03 µM |  | 
CNC(=O)[C@H](Cc1ccccc1)NC(=O)[C@H](CC(C)C)[C@H](O)C(=O)NO [Comparator 4, 2S-Hydroxy-3R-(1S-methylcarbamoyl-2-phenylethylcarbamoyl)-5-methylhexanohydroxamic acid, reference compound] | 0.015 µM | 0.2 µM | 0.003 µM |  | 
CC(C)C[C@H](CC(=O)NO)C(=O)N[C@@H](Cc1ccccc1)C(=O)Nc1ccccc1 [Example 1, 5-Methyl-3R-(2-phenyl-1S-phenylcarbamoylethylcarbamoyl)-hexanohydroxamic acid] | 0.02 µM |  | 0.06 µM | 0.01 µM | 
CC(C)C[C@H](NC(=O)[C@H](CC(C)C)[C@H](O)C(=O)NO)C(=O)Nc1ccc2ccccc2c1 [Example 5, 2S-Hydroxy-3R-(3-methyl-1S-napth-2-ylcarbamoyl-butylcarbamoyl)-5-methylhexanohydroxamic acid] | 0.03 µM | 0.005 µM | 0.006 µM |  | 
CNC(=O)[C@H](Cc1ccccc1)NC(=O)[C@@H](CC(=O)NO)CC(C)C [Comparator 1, 5-Methyl-3R-(1S-methylcarbamoyl-2-phenylethylcarbamoyl)hexanohydroxamic acid, reference compound] | 0.015 µM |  |  |  | 
CNC(=O)[C@H](CC(C)C)NC(=O)[C@H](CC(C)C)[C@H](O)C(=O)NO [Comparator 5, 2S-Hydroxy-3R-(1S-methylcarbamoyl-3-methyl-butylcarbamoyl)-5methylhexanohydroxamic acid, reference compound] | 0.008 µM | 0.09 µM |  |  | 
Cc1nc(NC(=O)[C@@H](NC(=O)[C@H](CC(C)C)[C@H](O)C(=O)NO)C(C)(C)C)sc1C [Example 17, 3R-(2,2-Dimethyl-1S-(4,5-dimethylthiazol-2-ylcarbamoyl)-propylcarbamoyl)-2S-hydroxy-5-methylhexanohydroxamic acid] | 0.002 µM | 0.02 µM | 0.03 µM |  | 
CNC(=O)[C@@H](NC(=O)[C@@H](CC(=O)NO)CC(C)C)C(C)(C)C [Comparator 3, 3R-(2,2-Dimethyl-1S-methylcarbamoyl-propylcarbamoyl)-5-methylhexanohydroxamic acid, reference compound] | 0.01 µM | 0.7 µM |  |  | 0.008 µM
